Where two headings read alike, the source gives them in different places.
Key:
229E Mpro = 229E Mpro (Human coronavirus 229E, UniProt P0C6X1); assay: 229E Mpro enzymatic assay (standard methods, SARS-CoV2 Mpro assay given as exemplary); type: biochemical, human coronavirus (HCov) 229E
Description: Compounds were assayed using standard methods to assess compound activity and IC50. As an exemplary for assessment of the SARS-COV2 Mpro, the C-His6-tagged Mpro (NC_045512) was cloned, expressed in E. coli and purified. The assay buffer contained 20 mM of Tris-HCl (pH 7.3), 100 mM of NaCl, 1 mM of EDTA, 5 mM of TCEP and 0.1% BSA. The final concentrations of the Mpro protein and substrate were 25 nM and 25 μM, respectively, in the Mpro enzymatic assay. The Km of the Mpro substrate for the protease was 13.5 μM.
The compounds were added to an assay plate. […] For no inhibition control (ZPE, zero percent effect), no compound was added.
IC50 values of compounds were calculated with the GraphPad Prism software using the nonlinear regression model of log(inhibitor) vs. response—Variable slope (four parameters). The inhibition activity was calculated using the formula below, IC50 values is calculated using the Inhibition % data.
Inhibition %=[(Sample-Average ZPE)/(Average HPE-Average ZPE)]*100%^#

[1] = target: COVID-19 (nCoV-2019, SARS-CoV2) Mpro (Severe acute respiratory syndrome coronavirus 2, UniProt P0DTD1); assay: COVID-19 (nCoV-2019, SARS-CoV2) Mpro enzymatic assay; type: biochemical; details: 25 nM Mpro, 25 μM substrate; read-out: COVID-19 Mpro IC50
HCov OC43 = assay: HCoV OC43 cytopathic effect (CPE) assay, CellTiter Glo; type: cell-based, human coronavirus (HCov) OC43
Description: Example 238: Evaluation of antiviral activity of compounds against human coronavirus (HCov) 229E and OC43 in the cytopathic effect (CPE) assays
Compounds were assayed using standard methods against multiple coronaviral strains, including HCoV 229E and OC43 strains. The antiviral activity of compounds was calculated based on the protection of the virus-induced CPE at each concentration normalized by the virus control.
Reference compound used was remdesivir; detection reagent: CellTiter Glo.) The CPE were measured by CellTiter Glo following the manufacturer's manual. The antiviral activity of compounds was calculated based on the protection of the virus-induced CPE at each concentration normalized by the virus control.
Cell viability was measured with CellTiter Glo.

[2] = Betacoronavirus 1, OC43, read-out: OC43 IC50 (uM) MEDIAN, median
[3] = read-out: OC43 IC50 (uM) MEDIAN, median

Sequence of 229E Mpro (P0C6X1 2966-3267): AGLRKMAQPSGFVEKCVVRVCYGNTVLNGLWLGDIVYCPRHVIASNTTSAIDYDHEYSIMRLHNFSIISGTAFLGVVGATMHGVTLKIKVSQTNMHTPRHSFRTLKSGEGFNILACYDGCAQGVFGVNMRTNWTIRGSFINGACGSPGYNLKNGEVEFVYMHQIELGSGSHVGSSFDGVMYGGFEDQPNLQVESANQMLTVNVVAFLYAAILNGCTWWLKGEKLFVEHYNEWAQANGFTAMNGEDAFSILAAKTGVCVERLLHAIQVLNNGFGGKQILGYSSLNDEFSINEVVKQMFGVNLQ

SMILES	EC50 (229E Mpro; 229E Mpro EC50)	IC50 [1]	IC50 (HCov OC43; [2])	IC50 (HCov OC43; read-out: OC43 IC50 (uM) MEDIAN, median, listed as 1161 Isomer 2)	IC50 (HCov OC43; [3])	EC50 (229E Mpro; read-out: 229E Mpro EC50)	IC50 (HCov OC43; read-out: OC43 IC50 (uM) MEDIAN, median, listed as 1161 Isomer 1)
CO[C@@H]1C[C@H](C(=O)N(c2ccc(S(F)(F)(F)(F)F)cc2)C(C(=O)NCC(C)(C)OC)c2cccnc2)N(C#N)C1 (single isomer, unassigned) [1194 Isomer 1]	< 2 µM	< 2 µM	< 2 µM	–	–	–	–
CO[C@@H]1C[C@H](C(=O)N(c2ccc(S(F)(F)(F)(F)F)cc2)C(C(=O)NC2CC3CCC(C2)O3)c2cccnc2)N(C#N)C1 (single isomer, unassigned) [1187 Isomer 1]	< 2 µM	< 2 µM	< 2 µM	–	–	–	–
CO[C@@H]1C[C@H](C(=O)N(c2ccc(S(F)(F)(F)(F)F)cc2)C(C(=O)NC2CCC(F)(F)CC2)c2cnccc2C(F)(F)F)N(C#N)C1 (single isomer, unassigned) [1202 Isomer 1]	< 2 µM	< 2 µM	< 2 µM	–	–	–	–
CC(C(=O)NC1CCC(F)(F)CC1)(c1cccnc1)N(C(=O)[C@H]1C[C@@](C)(O)CN1C#N)c1ccc(S(F)(F)(F)(F)F)cc1 (stereo partly drawn) [Compound 1077, (2R,4R)-1-cyano-N-[2-[(4,4-difluorocyclohexyl)amino]-1-methyl-2-oxo-1-(3-pyridyl)ethyl]-4-hydroxy-4-methyl-N-[4-(pentafluoro-λ^6-sulfanyl)phenyl]pyrrolidine-2-carboxamide]	< 2 µM	< 2 µM	< 2 µM	–	–	–	–
CN1CC(C(=O)N(c2ccc(S(F)(F)(F)(F)F)cc2)C(C(=O)NC2CCC(F)(F)CC2)c2cncc(F)c2)N(C#N)CC1=O (single isomer, unassigned) [Compound 1161 Isomer 2, 1-cyano-N-[2-[(4,4-difluorocyclohexyl)amino]-1-(5-fluoro-3-pyridyl)-2-oxo-ethyl]-4-methyl-5-oxo-N-[4-(pentafluoro-λ6-sulfanyl)phenyl]piperazine-2-carboxamide]	2 to 10 µM	2 to 10 µM	–	2 to 10 µM	–	–	–
CO[C@@H]1C[C@H](C(=O)N(c2ccc(C(C)(C)C)cc2)C(C)(C(=O)NC2CCCCC2)c2cccnc2)N(C#N)C1 (single isomer, unassigned) [1230 Isomer 1]	2 to 10 µM	> 30 µM	–	–	> 30 µM	–	–
CC(C)(C)OC(=O)N1CCN(C(=O)C(c2cccnc2)N(C(=O)[C@H]2CCCN2C#N)c2ccc(C(C)(C)C)cc2)CC1 (stereo partly drawn) [Compound 954b]	2 to 10 µM	2 to 10 µM	2 to 10 µM	–	–	–	–
C[C@@]1(O)C[C@H](C(=O)N(c2ccc(S(F)(F)(F)(F)F)cc2)C(C(=O)NC2CCC(F)(F)CC2)c2cccnc2F)N(C#N)C1 (stereo partly drawn) [Compound 1158, (2R,4R)-1-cyano-N-[2-[(4,4-difluorocyclohexyl)amino]-1-(2-fluoro-3-pyridyl)-2-oxo-ethyl]-4-hydroxy-4-methyl-N-[4-(pentafluoro-λ6-sulfanyl)phenyl]pyrrolidine-2-carboxamide]	< 2 µM	< 2 µM	< 2 µM	–	–	–	–
CC(C)(C)c1ccc(N(C(=O)[C@H]2CCCN2C#N)C(C(=O)NCc2ccncc2)c2cccnc2)cc1 (single isomer, unassigned) [Compound 439 Isomer 2]	–	2 to 10 µM	–	–	10 to 30 µM	< 2 µM	–
CC(C)(C)c1ccc(N(C(=O)[C@H]2CCCN2C#N)C(C(=O)NCC2COC2)c2cccnc2)cc1 (single isomer, unassigned) [Compound 419 Isomer 2]	–	2 to 10 µM	–	–	2 to 10 µM	< 2 µM	–
CO[C@@H]1C[C@H](C(=O)N(c2ccc(S(F)(F)(F)(F)F)cc2)C(C(=O)NCCc2cccc(F)c2)c2cccnc2)N(C#N)C1 (single isomer, unassigned) [1197 Isomer 2]	–	2 to 10 µM	–	–	2 to 10 µM	< 2 µM	–
CC(C)(C)c1ccc(N(C(=O)[C@H]2[C@H](F)CCN2C#N)C(C(=O)NC2CCCCC2)c2cccnc2)cc1 (single isomer, unassigned) [Compound 910 Isomer 1]	< 2 µM	< 2 µM	< 2 µM	–	–	–	–
CC1(C)CN(C#N)[C@@H](C(=O)N(c2ccc(C(C)(C)C)cc2)C(C(=O)NC2CCOCC2)c2cccnc2)CO1 (single isomer, unassigned) [1141 Isomer 3]	10 to 30 µM	> 30 µM	–	–	> 30 µM	–	–
CN1CC(C(=O)N(c2ccc(S(F)(F)(F)(F)F)cc2)C(C(=O)NC2CCC(F)(F)CC2)c2cncc(F)c2)N(C#N)CC1=O (single isomer, unassigned) [Compound 1161 Isomer 1, 1-cyano-N-[2-[(4,4-difluorocyclohexyl)amino]-1-(5-fluoro-3-pyridyl)-2-oxo-ethyl]-4-methyl-5-oxo-N-[4-(pentafluoro-λ6-sulfanyl)phenyl]piperazine-2-carboxamide]	< 2 µM	< 2 µM	–	–	–	–	< 2 µM
N#CN1C[C@@H](F)C[C@@H]1C(=O)N(c1ccc(S(F)(F)(F)(F)F)cc1)C(C(=O)NC1CCC(F)(F)CC1)c1cncc(F)c1 (single isomer, unassigned) [Compound 1099 Isomer 2]	–	< 2 µM	–	–	2 to 10 µM	< 2 µM	–
CO[C@@H]1C[C@H](C(=O)N(c2ccc(S(F)(F)(F)(F)F)cc2)C(C(=O)NC2CCC(F)(F)CC2)c2cncs2)N(C#N)C1 (stereo partly drawn) [Compound 1311, (2R,4R)-1-cyano-N-[2-[(4,4-difluorocyclohexyl)amino]-2-oxo-1-thiazol-5-yl-ethyl]-4-methoxy-N-[4-(pentafluoro-λ^6-sulfanyl)phenyl]pyrrolidine-2-carboxamide]	< 2 µM	< 2 µM	< 2 µM	–	–	–	–
C[C@@]1(O)C[C@H](C(=O)N(c2ccc(-c3ccccc3)cc2)C(C(=O)NC2CCC(F)(F)CC2)c2cncc(F)c2)N(C#N)C1 (single isomer, unassigned) [1330 Isomer 1]	< 2 µM	< 2 µM	–	–	< 2 µM	–	–
N#CN1C[C@H](O)C[C@@H]1C(=O)N(c1ccc(S(F)(F)(F)(F)F)cc1F)C(C(=O)NC1CCC(F)(F)CC1)c1cccnc1 (single isomer, unassigned) [1288a Isomer 1]	< 2 µM	< 2 µM	< 2 µM	–	–	–	–
O=C(NC1CCC(F)(F)CC1)C(c1cncc(F)c1)N(C(=O)C1CCC1(O)O)c1ccc(S(F)(F)(F)(F)F)cc1 (stereo not drawn) [Compound 1133a, N-[2-[(4,4-difluorocyclohexyl)amino]-1-(5-fluoro-3-pyridyl)-2-oxo-ethyl]-2,2-dihydroxy-N-[4-(pentafluoro-λ6-sulfanyl)phenyl]cyclobutanecarboxamide]	> 30 µM	> 30 µM	> 30 µM	–	–	–	–
N#CN1CC2C[C@@]1(C(=O)N(c1ccc(S(F)(F)(F)(F)F)cc1)C(C(=O)NC1CCC(F)(F)CC1)c1cncc(F)c1)CO2 (stereo partly drawn) [Compound 1136b]	2 to 10 µM	2 to 10 µM	> 30 µM	–	–	–	–
CN1CC(C(=O)N(c2ccc(S(F)(F)(F)(F)F)cc2)C(C(=O)NC2CCC(F)(F)CC2)c2cncc(F)c2)N(C#N)CC1=O (stereo not drawn) [Compound 1161, 1-cyano-N-[2-[(4,4-difluorocyclohexyl)amino]-1-(5-fluoro-3-pyridyl)-2-oxo-ethyl]-4-methyl-5-oxo-N-[4-(pentafluoro-λ^6-sulfanyl)phenyl]piperazine-2-carboxamide]	< 2 µM	< 2 µM	< 2 µM	–	–	–	–
CS(=O)(=O)[C@H]1C[C@H](C(=O)N(c2ccc(S(F)(F)(F)(F)F)cc2)C(C(=O)NC2CCC(F)(F)CC2)c2cncc(F)c2)N(C#N)C1 (single isomer, unassigned) [1105 Isomer 2]	–	< 2 µM	–	–	< 2 µM	< 2 µM	–
CO[C@@H]1C[C@H](C(=O)N(c2ccc(S(F)(F)(F)(F)F)cc2)C(C)(C(=O)NC2CCC(F)(F)CC2)c2cccnc2)N(C#N)C1 (single isomer, unassigned) [1259 Isomer 1]	< 2 µM	2 to 10 µM	2 to 10 µM	–	–	–	–

Source: patent publication US20220380347A1, “INHIBITORS OF CYSTEINE PROTEASES AND METHODS OF USE THEREOF” (Pardes Biosciences, Inc., priority 2020, published 2022)
